Usually pKi stands for the Ki on a negative log10 scale, so that one unit is a factor of ten.

pKi: −log10 of the molar value.

Here are results for five compounds from BindingDB's records for doi:10.1111/cbdd.12575 (Universidade De Lisboa, 2015).

The target of the experiment is T1, Nitric oxide synthase, inducible (Mus musculus, UniProt P29477).
T1 sequence (P29477 whole entry): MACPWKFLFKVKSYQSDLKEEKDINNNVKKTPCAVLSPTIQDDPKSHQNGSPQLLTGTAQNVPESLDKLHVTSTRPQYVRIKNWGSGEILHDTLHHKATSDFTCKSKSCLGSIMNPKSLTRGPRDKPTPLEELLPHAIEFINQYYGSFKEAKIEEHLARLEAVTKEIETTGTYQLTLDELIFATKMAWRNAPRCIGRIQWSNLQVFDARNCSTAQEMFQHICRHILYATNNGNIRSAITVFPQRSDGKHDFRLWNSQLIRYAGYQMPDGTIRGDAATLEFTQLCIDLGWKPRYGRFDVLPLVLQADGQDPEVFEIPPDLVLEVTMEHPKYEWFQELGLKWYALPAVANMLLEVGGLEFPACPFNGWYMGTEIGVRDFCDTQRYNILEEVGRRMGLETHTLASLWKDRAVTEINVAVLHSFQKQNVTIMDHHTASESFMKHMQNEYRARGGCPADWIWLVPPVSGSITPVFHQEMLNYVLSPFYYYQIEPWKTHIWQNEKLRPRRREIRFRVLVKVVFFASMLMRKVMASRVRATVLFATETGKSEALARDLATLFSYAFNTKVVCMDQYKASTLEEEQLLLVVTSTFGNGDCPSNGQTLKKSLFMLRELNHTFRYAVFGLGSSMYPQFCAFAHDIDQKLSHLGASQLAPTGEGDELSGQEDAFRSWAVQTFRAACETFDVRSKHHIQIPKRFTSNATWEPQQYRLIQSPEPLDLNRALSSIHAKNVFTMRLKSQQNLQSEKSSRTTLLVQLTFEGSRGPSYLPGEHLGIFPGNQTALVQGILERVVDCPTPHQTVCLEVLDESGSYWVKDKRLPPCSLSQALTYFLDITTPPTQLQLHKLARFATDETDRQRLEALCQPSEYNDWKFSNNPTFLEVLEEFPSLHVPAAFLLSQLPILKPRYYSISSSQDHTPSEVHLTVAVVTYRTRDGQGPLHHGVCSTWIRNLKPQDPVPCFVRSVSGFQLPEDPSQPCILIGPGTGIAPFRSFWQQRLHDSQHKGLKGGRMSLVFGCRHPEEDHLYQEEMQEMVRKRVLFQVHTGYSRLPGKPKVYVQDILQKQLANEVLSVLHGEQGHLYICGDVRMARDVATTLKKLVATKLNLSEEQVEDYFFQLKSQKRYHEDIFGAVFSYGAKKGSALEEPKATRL
The experiment in a line: iNOS Activity Assay. Here is the method:
The iNOS activity assay was based on the method of hemoglobin assay previously described with slight modifications. The activity of the enzyme was determined spectrophotometrically by monitoring the NO-mediated conversion of oxyhemoglobin to methemoglobin at 401 and 421 nm.

In turn, `N=C(NCCCC12C[NH][Re]([CH]=O)([CH]=O)([CH]=O)([NH]1)[O]C2=O)N[N+](=O)[O-]` (stereo not given) [1,1,1-triformyl-4-(3-{[iminiumyl(nitroamino)methyl]amino}propyl)-3-oxo-2-oxa-6,7-diaza-1-rhenabicyclo[2.2.1]heptane-6,7-diium (Re4)] showed a pKi of 3.62.
With `N=C(NCCCC(N)(CN)C(=O)O)N[N+](=O)[O-]` (stereo not given) [2-Amino-2-(aminomethyl)-5-(3-nitroguanidino)pentanoic acid (L4)], the pKi is 4.53.
In the case of `NCC(N)(CCCC(=O)NC(CCCNC(N)=N[N+](=O)[O-])C(=O)O)C(=O)O` (stereo not given) [2-Amino-2-(aminomethyl)-6-(1-carboxy-4-(2-nitroguanidino)butylamino)-6-oxohexanoic acid (L5)] it was 5.21; in that of `NCC(N)(CCCCCCC(=O)NC(CCCNC(N)=N[N+](=O)[O-])C(=O)O)C(=O)O` (stereo not given) [2-Amino-2-(aminomethyl)-9-(1-carboxy-4-(2-nitroguanidino)butylamino)-9-oxononanoic acid (L6)], 3.12.
Take `N=C(NCCCC(NC(=O)CCCC12C[NH][Re]([CH]=O)([CH]=O)([CH]=O)([NH]1)[O]C2=O)C(=O)O)N[N+](=O)[O-]` (stereo not given) [4-{3-[(1-carboxylato-4-{[iminiumyl(nitroamino)methyl]amino}butyl)carbamoyl]propyl}-1,1,1-triformyl-3-oxo-2-oxa-6,7-diaza-1-rhenabicyclo[2.2.1]heptane-6,7-diium (Re5)]: the pKi is 4.24.
